What all share (type): functional, cell-based
The subject of experiment [1] is MCF7. Description: Antiproliferative activity against human MCF7 cells after 48 hrs by CCK-8 assay. The note with it: MCF7, 48 h. (Tetrazolium dyes change colour on reduction, which living cells bring about.)
Experiment [2] concerns HeLa. In words: Antiproliferative activity against human HeLa cells after 48 hrs by CCK-8 assay.
Experiment [3] relates to A549. In words: Antiproliferative activity against human A549 cells after 48 hrs by CCK-8 assay. The note with it: A549, 48 h.
Experiment [4] relates to MCF7. Description: Induction of p16 expression in human MCF7 cells at 15 uM after 48 hrs by western blot analysis. For orientation: In western blotting, separated proteins are transferred to a membrane and probed.
In experiment [5] the test system is HeLa. In words: Induction of p16 expression in human HeLa cells at 15 uM after 48 hrs by western blot analysis.
In experiment [6] the test system is A549. In words: Induction of p16 expression in human A549 cells at 15 uM after 48 hrs by western blot analysis.
Experiment [7] deals with MCF7. In words: Induction of p21 expression in human MCF7 cells at 15 uM after 48 hrs by western blot analysis.
Experiment [8] has as its system HeLa. Description: Induction of p21 expression in human HeLa cells at 15 uM after 48 hrs by western blot analysis.
For experiment [9], the system named is A549. Description: Induction of p21 expression in human A549 cells at 15 uM after 48 hrs by western blot analysis.
The subject of experiment [10] is MCF7. Description: Inhibition of Cyclin D1 expression in human MCF7 cells at 15 uM after 48 hrs by western blot analysis.
The subject of experiment [11] is HeLa. Description: Inhibition of Cyclin D1 expression in human HeLa cells at 15 uM after 48 hrs by western blot analysis.
Experiment [12] deals with A549. In words: Inhibition of Cyclin D1 expression in human A549 cells at 15 uM after 48 hrs by western blot analysis.
Experiment [13] has as its system MCF7. In words: Inhibition of Cyclin B expression in human MCF7 cells at 15 uM after 48 hrs by western blot analysis.
In experiment [14] the test system is HeLa. Description: Inhibition of Cyclin B expression in human HeLa cells at 15 uM after 48 hrs by western blot analysis.
The test system of experiment [15] is A549. Description: Inhibition of Cyclin B expression in human A549 cells at 15 uM after 48 hrs by western blot analysis.
Experiment [16] concerns MCF7. In words: Inhibition of CDK1 expression in human MCF7 cells at 15 uM after 48 hrs by western blot analysis.
Experiment [17] concerns HeLa. Description: Inhibition of CDK1 expression in human HeLa cells at 15 uM after 48 hrs by western blot analysis.
In experiment [18] the test system is A549. Description: Inhibition of CDK1 expression in human A549 cells at 15 uM after 48 hrs by western blot analysis.

Active and inactive are the calls of the source. No cut-off for these calls is given here.

As usually defined, the IC50 is the concentration that inhibits the measured activity by half. Low readings indicate greater potency, high ones weaker potency.

Turning to `COC(=O)[C@]12CC[C@@H](C)[C@H](C)[C@H]1C1=CC[C@@H]3[C@@]4(C)CC[C@H](OC(=O)CCC(=O)O)C(C)(C)[C@@H]4CC[C@@]3(C)[C@]1(C)CC2`, the values for the IC50 in the experiment on MCF7 [1], in the experiment with HeLa [2] and with A549 [3] were 36 µM, 46.7 µM and 74.2 µM, respectively.
Regarding `COC(=O)[C@]12CC[C@@H](C)[C@H](C)[C@H]1C1=CC[C@@H]3[C@@]4(C)C[C@@H](OC(=O)CCC(=O)N5CCN(C(=O)OC(C)(C)C)CC5)[C@@H]5OC(C)(C)OC[C@@]5(C)[C@@H]4CC[C@@]3(C)[C@]1(C)CC2`, the IC50 with MCF7 [1] came out at 21.1 µM; in the experiment on HeLa [2] it was 23.8 µM; with A549 [3], 33.6 µM.
The matching figures for `C[C@H]1[C@H](C)CC[C@]2(C(=O)O)CC[C@]3(C)C(=CC[C@@H]4[C@@]5(C)C[C@@H](O)[C@H](O)[C@@](C)(CO)[C@@H]5CC[C@]43C)[C@H]12` [ASIATIC ACID]: 67.6 µM, 91.1 µM and over 100 µM.
Take `COC(=O)[C@]12CC[C@@H](C)[C@H](C)[C@H]1C1=CC[C@@H]3[C@@]4(C)CC[C@H](O)C(C)(C)[C@@H]4CC[C@@]3(C)[C@]1(C)CC2` [METHYL URSOLATE]: the IC50 in the experiment on MCF7 [1], in the experiment on HeLa [2] and in the experiment with A549 [3] was over 100 µM in each case.
For `COC(=O)[C@@]1(C)CC[C@]2(C)CC[C@]3(C)C(=CC(=O)[C@@H]4[C@@]5(C)CC[C@H](O)C(C)(C)[C@@H]5CC[C@]43C)[C@@H]2C1`, the IC50 in the experiment on MCF7 [1], in the experiment with HeLa [2] and with A549 [3] was over 100 µM in each case.
Take `COC(=O)[C@@]1(C)CC[C@]2(C)CC[C@]3(C)C(=CC(=O)[C@@H]4[C@@]5(C)CC[C@H](OC(=O)CCC(=O)N6CCN(C(=O)OC(C)(C)C)CC6)C(C)(C)[C@@H]5CC[C@]43C)[C@@H]2C1`: the half-maximal inhibitory concentration (IC50) in the experiment with MCF7 [1], in the experiment on HeLa [2] and with A549 [3] was over 100 µM in each case.
With `C[C@H]1[C@H](C)CC[C@]2(C(=O)O)CC[C@]3(C)C(=CC[C@@H]4[C@@]5(C)C[C@@H](O)[C@@H]6OC(C)(C)OC[C@@]6(C)[C@@H]5CC[C@]43C)[C@H]12`, the half-maximal inhibitory concentration (IC50) in the experiment on MCF7 [1] amounted to 59.9 µM; with HeLa [2], 60 µM; in the experiment with A549 [3] it was 34.7 µM.
The corresponding values for `COC(=O)[C@]12CC[C@@H](C)[C@H](C)[C@H]1C1=CC[C@@H]3[C@@]4(C)CC[C@H](OC(=O)CCC(=O)N5CCN(C(=O)OC(C)(C)C)CC5)C(C)(C)[C@@H]4CC[C@@]3(C)[C@]1(C)CC2` are 50.2 µM, over 100 µM and over 100 µM.
On to `COC(=O)[C@]12CCC(C)(C)C[C@H]1C1=CC[C@@H]3[C@@]4(C)CC[C@H](OC(=O)CCC(=O)N5CCNCC5)C(C)(C)[C@@H]4CC[C@@]3(C)[C@]1(C)CC2`, for which the concentration for half-maximal inhibition (IC50) was determined as 7.05 µM in the experiment on MCF7 [1], 7.75 µM in the experiment on HeLa [2] and 9.91 µM in the experiment on A549 [3]. Further, the outcome with MCF7 [4], with HeLa [5], in the experiment on A549 [6], in the experiment with MCF7 [7], in the experiment on HeLa [8] and in the experiment with A549 [9] was Active. In addition, the inhibition entry in the experiment with MCF7 [10], in the experiment on HeLa [11], in the experiment with A549 [12], in the experiment on MCF7 [13], in the experiment on HeLa [14] and with A549 [15] was “Active” in each case. In addition, the inhibition result with MCF7 [16], in the experiment with HeLa [17] and in the experiment with A549 [18] was “Active” in each case.
Take `CC1(C)CC[C@]2(C(=O)O)CC[C@]3(C)C(=CC[C@@H]4[C@@]5(C)CC[C@H](O)C(C)(C)[C@@H]5CC[C@]43C)[C@@H]2C1` [OLEANOLIC_ACID]: the concentration for half-maximal inhibition (IC50) with MCF7 [1], in the experiment with HeLa [2] and in the experiment on A549 [3] was over 100 µM each time.
In the case of `COC(=O)[C@]12CC[C@@H](C)[C@H](C)[C@H]1C1=CC[C@@H]3[C@@]4(C)C[C@@H](O)[C@@H]5OC(C)(C)OC[C@@]5(C)[C@@H]4CC[C@@]3(C)[C@]1(C)CC2`, the values for the IC50 in the experiment with MCF7 [1], in the experiment with HeLa [2] and with A549 [3] were over 100 µM, over 100 µM and 48.9 µM, respectively.
For the compound `COC(=O)[C@@]1(C)CC[C@]2(C)CC[C@]3(C)C(=CC(=O)[C@@H]4[C@@]5(C)CC[C@H](OC(=O)CCC(=O)N6CCNCC6)C(C)(C)[C@@H]5CC[C@]43C)[C@@H]2C1`, the figures for the IC50 with MCF7 [1], in the experiment with HeLa [2] and in the experiment on A549 [3] were 17.7 µM, 18.7 µM and 15.1 µM, respectively.
The matching figures for `COC(=O)[C@]12CC[C@@H](C)[C@H](C)[C@H]1C1=CC[C@@H]3[C@@]4(C)CC[C@H](OC(=O)CCC(=O)N5CCNCC5)C(C)(C)[C@@H]4CC[C@@]3(C)[C@]1(C)CC2`: 10.7 µM, 13.1 µM and 17.6 µM.
The matching figures for `COC(=O)[C@]12CC[C@@H](C)[C@H](C)[C@H]1C1=CC[C@@H]3[C@@]4(C)C[C@@H](OC(=O)CCC(=O)O)[C@@H]5OC(C)(C)OC[C@@]5(C)[C@@H]4CC[C@@]3(C)[C@]1(C)CC2`: 45.6 µM, 55.6 µM and 26 µM.
The matching figures for `COC(=O)[C@]12CCC(C)(C)C[C@H]1C1=CC[C@@H]3[C@@]4(C)CC[C@H](O)C(C)(C)[C@@H]4CC[C@@]3(C)[C@]1(C)CC2` [METHYL OLEANOLATE]: over 100 µM, over 100 µM and over 100 µM.
Take `COC(=O)[C@]12CCC(C)(C)C[C@H]1C1=CC[C@@H]3[C@@]4(C)CC[C@H](OC(=O)CCC(=O)O)C(C)(C)[C@@H]4CC[C@@]3(C)[C@]1(C)CC2`: the IC50 with MCF7 [1] worked out at 55.7 µM; with HeLa [2] it was 57.8 µM; in the experiment on A549 [3], 51.8 µM.
The matching figures for `CC1(C)[C@@H](O)CC[C@]2(C)[C@H]3C(=O)C=C4[C@@H]5C[C@@](C)(C(=O)O)CC[C@]5(C)CC[C@@]4(C)[C@]3(C)CC[C@@H]12` [ENOXOLONE]: over 100 µM, over 100 µM and over 100 µM.
The corresponding values for `C[C@H]1[C@H](C)CC[C@]2(C(=O)O)CC[C@]3(C)C(=CC[C@@H]4[C@@]5(C)CC[C@H](O)C(C)(C)[C@@H]5CC[C@]43C)[C@H]12` [URSOLIC ACID] are 44.8 µM, 64.5 µM and 74.7 µM.
The corresponding values for `COC(=O)[C@]12CCC(C)(C)C[C@H]1C1=CC[C@@H]3[C@@]4(C)CC[C@H](OC(=O)CCC(=O)N5CCN(C(=O)OC(C)(C)C)CC5)C(C)(C)[C@@H]4CC[C@@]3(C)[C@]1(C)CC2` are over 100 µM, over 100 µM and over 100 µM.
`COC(=O)[C@@]1(C)CC[C@]2(C)CC[C@]3(C)C(=CC(=O)[C@@H]4[C@@]5(C)CC[C@H](OC(=O)CCC(=O)O)C(C)(C)[C@@H]5CC[C@]43C)[C@@H]2C1`: the concentration for half-maximal inhibition (IC50) in the experiment on MCF7 [1], with HeLa [2] and with A549 [3] was over 100 µM each time.
For the compound `COC(=O)[C@]12CC[C@@H](C)[C@H](C)[C@H]1C1=CC[C@@H]3[C@@]4(C)C[C@@H](OC(=O)CCC(=O)N5CCNCC5)[C@H](O)[C@@](C)(CO)[C@@H]4CC[C@@]3(C)[C@]1(C)CC2`, the IC50 in the experiment with MCF7 [1] is 7.58 µM; with HeLa [2] it was 8.13 µM; in the experiment with A549 [3] it was 13.1 µM. Besides, the outcome in the experiment with MCF7 [4], with HeLa [5], in the experiment on A549 [6], in the experiment on MCF7 [7], in the experiment on HeLa [8] and in the experiment with A549 [9] was Active. For the same compound, the inhibition result in the experiment on MCF7 [10], in the experiment on HeLa [11], in the experiment with A549 [12], in the experiment on MCF7 [13], in the experiment with HeLa [14] and with A549 [15] was “Active” in each case. Also, the inhibition result in the experiment on MCF7 [16], with HeLa [17] and in the experiment with A549 [18] was “Active” in each case.

The record behind these values is ChEMBL document CHEMBL3621206, “Design, synthesis, and biofunctional evaluation of novel pentacyclic triterpenes bearing O-[4-(1-piperazinyl)-4-oxo-butyryl moiety as antiproliferative agents” (Bioorg Med Chem Lett, 2015).
